Consider two molecules from US20120215126A1, “DETERMINING DYNAMIC AIRWAY RESPONSE IN A SUBJECT” (priority 2009, published 2012).

In the assay the test system is subject's respiratory system. In words: acoustic transmission (transfer function magnitude) monitoring of a subject's broncho-dynamic response. The format is in vivo. Particulars: FIG. 11, subject with exacerbation of asthma; combined treatment with Salbutamol and Ipratropium Bromide, treatment and recovery phase. As to the method: This involves introducing a sound signal having known characteristics into the airway of a subject in a step 101. The signal propagates through the lung and chest tissues to the chest wall and is detected in steps 102, 105 using one or more transducers attached to the subject at one or more locations on the thoracic surface. Preferably, baseline acoustic transmission is determined in a step 103. In a step 106, changes in the detected signal are monitored during and after administration of a broncho-effector (step 104). These changes are indicative the subject's airway response (i.e. changes in airway patency due do constriction, dilation or mucus production). The test is terminated in step 107. […] By positioning the reference transducer here, the transfer function calculated by processor 205 represents the acoustic transmission of subject's respiratory system including the lower airways, alveolar sacs, thoracic tissues etc., but excludes the effects of the apparatus used to introduce the sound (e.g. loudspeaker, tubing) and the upper airways. […] The introduced sound signal is transmitted through the subject's airways, lung parenchyma and chest wall tissues such as muscle, ribs, skin etc. and in a step 102, is detected at one or more locations on the thoracic surface. […]

Consider `CC(C)[N+]1(C)[C@@H]2CC[C@H]1CC(OC(=O)C(CO)c1ccccc1)C2.[Br-]` (some centres unmarked) [Ipratropium Bromide], for which the airway patency entry was “gradual improvement”. Take `CC(C)(C)NCC(O)c1ccc(O)c(CO)c1` (centres unmarked) [Salbutamol]: the airway patency result is “gradual improvement”.
